According to patent publication US20220313698A1, “MODULATORS OF CYSTIC FIBROSIS TRANSMEMBRANE CONDUCTANCE REGULATOR” (Vertex Pharmaceuticals Incorporated, priority 2019, published 2022):
Like-named read-outs stand apart in the source and are kept apart here.

Assays:
[1] = snar bond, 15-membered ring
[2] = biological target: T1, CFTR-mediated chloride transport (Homo sapiens, UniProt P13569); test: Corrector Assay B - membrane potential dye assay (enteroid cells); conditions: for Corrector Assay B % activity: % of chloride transport of triple combination control (3 μM Compound A + 3 μM tezacaftor + 300 nM ivacaftor); for EC50: read-out: Corrector Assay B EC50, human intestinal enteroid cells, 18-24 h incubation, acute 10 μM forskolin + 300 nM ivacaftor;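 for all read-outs here: methyl oxonol membrane potential fluorescence followed over 15 min after switching to chloride-free buffer with forskolin, 100 µM IBMX and ivacaftor, in presence of CaCC blockers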
[3] = biological target: T1, CFTR-mediated chloride transport; test: Corrector Assay A - membrane potential dye assay (enteroid cells); conditions: for Corrector Assay A % activity: % of chloride transport of triple combination control (1 μM (14S)-dispiro macrocycle + 3 μM tezacaftor + 300 nM ivacaftor); for EC50: read-out: Corrector Assay A EC50, human intestinal enteroid cells, 18-24 h incubation, acute 10 μM forskolin + 300 nM ivacaftor

CC(C)(C)c1ccc2c(n1)N1CC(CCCOc3cccc(c3)S(=O)(=O)NC2=O)CC1(C)C (stereo not drawn)
ring closure, yield after HPLC ([1]; from CC1(C)CC(CCCOc2cccc(S(=O)(=O)NC(=O)c3ccc(C(C)(C)C)nc3F)c2)CN1, K2CO3, NMP, 27.5 mM, 150.0 °C, 16.0 h): 41%

CC(C)(C)c1ccc2c(n1)N1CC(CCN(c3ccccc3)C(=O)c3cccc(c3)S(=O)(=O)NC2=O)CC1(C)C (stereo not drawn)
ring closure, yield after HPLC ([1]; from CC1(C)CC(CCN(C(=O)c2cccc(S(=O)(=O)NC(=O)c3ccc(C(C)(C)C)nc3Cl)c2)c2ccccc2)CN1, K2CO3, then CsF/3A MS, NMP, 24.6 mM, 180.0 °C, 88.0 h): 29%

CC1(C)CC2CN1c1nc(-n3ccc(OCCC4(C(F)(F)F)CC4)n3)ccc1C(=O)NS(=O)(=O)c1cccc(n1)NCCC2c1ccccc1 (stereo not drawn)
ring closure, yield after HPLC ([1]; from CC1(C)CC(C(CCNc2cccc(S(=O)(=O)NC(=O)c3ccc(-n4ccc(OCCC5(C(F)(F)F)CC5)n4)nc3Cl)n2)c2ccccc2)CN1, K2CO3/3A MS, DMSO, 38.4 mM, 155.0 °C, 16.0 h, 2 steps): 50%

CC1(C)C[C@@H]2CCC(c3ccc(C(=O)O)cc3)Nc3cccc(n3)S(=O)(=O)NC(=O)c3ccc(-n4ccc(OCCC5(C(F)(F)F)CC5)n4)nc3N1C2 (stereo partly drawn)
ring closure, yield after HPLC ([1]; from CC1(C)C[C@H](CCC(Nc2cccc(S(=O)(=O)NC(=O)c3ccc(-n4ccc(OCCC5(C(F)(F)F)CC5)n4)nc3Cl)n2)c2ccc(C(=O)O)cc2)CN1, K2CO3, NMP, 19.4 mM, 150.0 °C, 18.0 h): 40%

CC(C)(C)c1ccc2c(n1)N1C[C@@H](CCC(c3ccccn3)Nc3cccc(n3)S(=O)(=O)NC2=O)CC1(C)C (single isomer, unassigned) [Compound 292]
Corrector Assay B % activity [2]: +++ (+++ is >60%) | EC50 [2]: < 1 µM | Corrector Assay A % activity [3]: +++ (+++ is >60%) | EC50 [3]: < 1 µM

CC(C)(C)c1ccc2c(n1)N1C[C@@H](CCC(c3ccccn3)Nc3cccc(n3)S(=O)(=O)NC2=O)CC1(C)C (single isomer, unassigned) [Compound 293]
Corrector Assay B % activity [2]: +++ (+++ is >60%) | EC50 [2]: < 1 µM | Corrector Assay A % activity [3]: ++ (++ is 30-60%) | EC50 [3]: < 1 µM

CC(C)(C)c1ccc2c(n1)N1C[C@@H](CC[C@@H](c3ccccc3)Nc3cccc(n3)S(=O)(=O)NC2=O)CC1(C)C (single isomer, unassigned) [Compound 294]
Corrector Assay B % activity [2]: +++ (+++ is >60%) | EC50 [2]: < 1 µM | Corrector Assay A % activity [3]: +++ (+++ is >60%) | EC50 [3]: < 1 µM

CC(C)(C)c1ccc2c(n1)N1C[C@@H](CC[C@@H](c3ccccc3)Nc3cccc(n3)S(=O)(=O)NC2=O)CC1(C)C (single isomer, unassigned) [Compound 295]
Corrector Assay B % activity [2]: +++ (+++ is >60%) | EC50 [2]: < 1 µM | Corrector Assay A % activity [3]: ++ (++ is 30-60%) | EC50 [3]: < 1 µM

CC(C)(C)c1ccc2c(n1)N1C[C@@H](CCC(c3cncnc3)Nc3cccc(n3)S(=O)(=O)NC2=O)CC1(C)C (single isomer, unassigned) [Compound 297]
Corrector Assay B % activity [2]: +++ (+++ is >60%) | EC50 [2]: < 1 µM | Corrector Assay A % activity [3]: +++ (+++ is >60%) | EC50 [3]: < 1 µM

CC1(C)C[C@@H]2CCC(c3ccccn3)Nc3cccc(n3)S(=O)(=O)NC(=O)c3ccc(-n4ccc(OCCC5(C(F)(F)F)CC5)n4)nc3N1C2 (single isomer, unassigned) [Compound 361]
Corrector Assay B % activity [2]: +++ (+++ is >60%) | EC50 [2]: < 1 µM | Corrector Assay A % activity [3]: +++ (+++ is >60%) | EC50 [3]: < 1 µM

CC1(C)C[C@@H]2CCC(c3ccccn3)Nc3cccc(n3)S(=O)(=O)NC(=O)c3ccc(-n4ccc(OCCC5(C(F)(F)F)CC5)n4)nc3N1C2 (single isomer, unassigned) [Compound 362]
Corrector Assay B % activity [2]: +++ (+++ is >60%) | Corrector Assay A % activity [3]: +++ (+++ is >60%) | EC50 [3]: < 1 µM

CC1(C)C[C@@H]2CCC(c3ccccc3)Nc3cccc(n3)S(=O)(=O)NC(=O)c3ccc(-n4ccc(OCCC5C6(CC6)C56CC6)n4)nc3N1C2 (single isomer, unassigned) [Compound 363]
Corrector Assay B % activity [2]: +++ (+++ is >60%) | EC50 [2]: < 1 µM | Corrector Assay A % activity [3]: +++ (+++ is >60%) | EC50 [3]: < 1 µM

CC1(C)C[C@@H]2CCC(c3ccccc3)Nc3cccc(n3)S(=O)(=O)NC(=O)c3ccc(-n4ccc(OCCC5C6(CC6)C56CC6)n4)nc3N1C2 (single isomer, unassigned) [Compound 364]
Corrector Assay B % activity [2]: +++ (+++ is >60%) | Corrector Assay A % activity [3]: +++ (+++ is >60%) | EC50 [3]: < 1 µM

CCCC1(C)CC2CCCNc3cccc(n3)S(=O)(=O)NC(=O)c3ccc(-n4ccc(OCCC5(C(F)(F)F)CC5)n4)nc3N1C2 (single isomer, unassigned) [Compound 367, 12-methyl-12-propyl-8-(3-{2-[1-(trifluoromethyl)cyclopropyl]ethoxy}-1H-pyrazol-1-yl)-2λ^6-thia-3,9,11,18,23-pentaazatetracyclo[17.3.1.111,14.05,10]tetracosa-1(22),5,7,9,19(23),20-hexaene-2,2,4-trione]
Corrector Assay B % activity [2]: ++ (++ is 30-60%) | EC50 [2]: < 1 µM | Corrector Assay A % activity [3]: +++ (+++ is >60%) | EC50 [3]: < 1 µM

CC1(C)CC2CCC(c3ccccc3)Nc3cccc(n3)S(=O)(=O)NC(=O)c3ccc(-n4ccc(OCCC5(C(F)(F)F)CC5)n4)nc3N1C2 (single isomer, unassigned) [Compound 383, 12,12-Dimethyl-17-phenyl-8-(3-{2-[1-(trifluoromethyl)cyclopropyl]ethoxy}-1H-pyrazol-1-yl)-2λ^6-thia-3,9,11,18,23-pentaazatetracyclo[17.3.1.111,14.05,10]tetracosa-1(22),5,7,9,19(23),20-hexaene-2,2,4-trione]
Corrector Assay B % activity [2]: +++ (+++ is >60%) | EC50 [2]: < 1 µM | Corrector Assay A % activity [3]: ++ (++ is 30-60%) | EC50 [3]: < 1 µM

CC1(C)CC2CCC(c3ccccc3)Nc3cccc(n3)S(=O)(=O)NC(=O)c3ccc(-n4ccc(OCCC5(C(F)(F)F)CC5)n4)nc3N1C2 (single isomer, unassigned) [Compound 384, 12,12-Dimethyl-17-phenyl-8-(3-{2-[1-(trifluoromethyl)cyclopropyl]ethoxy}-1H-pyrazol-1-yl)-2λ^6-thia-3,9,11,18,23-pentaazatetracyclo[17.3.1.111,14.05,10]tetracosa-1(22),5,7,9,19(23),20-hexaene-2,2,4-trione]
Corrector Assay B % activity [2]: ++ (++ is 30-60%) | Corrector Assay A % activity [3]: + (+ is <30%) | EC50 [3]: < 1 µM

CC1(C)CC2CN1c1nc(-n3ccc(OCCC4(C(F)(F)F)CC4)n3)ccc1C(=O)NS(=O)(=O)c1cccc(n1)NCCC2c1ccccc1 (single isomer, unassigned) [Compound 385, 12,12-dimethyl-15-phenyl-8-(3-{2-[1-(trifluoromethyl)cyclopropyl]ethoxy}-1H-pyrazol-1-yl)-2λ^6-thia-3,9,11,18,23-pentaazatetracyclo[17.3.1.111,14.05,10]tetracosa-1(22),5,7,9,19(23),20-hexaene-2,2,4-trione]
Corrector Assay B % activity [2]: ++ (++ is 30-60%) | EC50 [2]: < 1 µM | Corrector Assay A % activity [3]: ++ (++ is 30-60%) | EC50 [3]: < 1 µM

CC1(C)CC2CCC(c3ccccc3)Nc3cccc(n3)S(=O)(=O)NC(=O)c3ccc(-n4ccc(OCCC5(C(F)(F)F)CC5)n4)nc3N1C2 (single isomer, unassigned) [Compound 387, 12,12-Dimethyl-17-phenyl-8-(3-{2-[1-(trifluoromethyl)cyclopropyl]ethoxy}-1H-pyrazol-1-yl)-2λ^6-thia-3,9,11,18,23-pentaazatetracyclo[17.3.1.111,14.05,10]tetracosa-1(22),5,7,9,19(23),20-hexaene-2,2,4-trione]
Corrector Assay B % activity [2]: +++ (+++ is >60%) | Corrector Assay A % activity [3]: +++ (+++ is >60%) | EC50 [3]: < 1 µM

CC1(C)CC2CC(c3ccccc3)CNc3cccc(n3)S(=O)(=O)NC(=O)c3ccc(-n4ccc(OCCC5(C(F)(F)F)CC5)n4)nc3N1C2 (single isomer, unassigned) [Compound 389, 12,12-dimethyl-16-phenyl-8-(3-{2-[1-(trifluoromethyl)cyclopropyl]ethoxy}-1H-pyrazol-1-yl)-2λ^6-thia-3,9,11,18,23-pentaazatetracyclo[17.3.1.111,14.05,10]tetracosa-1(22),5,7,9,19(23),20-hexaene-2,2,4-trione]
Corrector Assay B % activity [2]: +++ (+++ is >60%) | EC50 [2]: < 1 µM | Corrector Assay A % activity [3]: +++ (+++ is >60%) | EC50 [3]: < 1 µM

CC1(C)CC2CC(c3ccccc3)CNc3cccc(n3)S(=O)(=O)NC(=O)c3ccc(-n4ccc(OCCC5(C(F)(F)F)CC5)n4)nc3N1C2 (single isomer, unassigned) [Compound 391, 12,12-dimethyl-16-phenyl-8-(3-{2-[1-(trifluoromethyl)cyclopropyl]ethoxy}-1H-pyrazol-1-yl)-2λ^6-thia-3,9,11,18,23-pentaazatetracyclo[17.3.1.111,14.05,10]tetracosa-1(22),5,7,9,19(23),20-hexaene-2,2,4-trione]
Corrector Assay B % activity [2]: +++ (+++ is >60%) | Corrector Assay A % activity [3]: +++ (+++ is >60%) | EC50 [3]: < 1 µM

CC1(C)CC2CN1c1nc(-n3ccc(OCCC4(C(F)(F)F)CC4)n3)ccc1C(=O)NS(=O)(=O)c1cccc(n1)NCCC2c1ccccc1 (single isomer, unassigned) [Compound 393, 12,12-dimethyl-15-phenyl-8-(3-{2-[1-(trifluoromethyl)cyclopropyl]ethoxy}-1H-pyrazol-1-yl)-2λ^6-thia-3,9,11,18,23-pentaazatetracyclo[17.3.1.111,14.05,10]tetracosa-1(22),5,7,9,19(23),20-hexaene-2,2,4-trione]
Corrector Assay B % activity [2]: +++ (+++ is >60%) | Corrector Assay A % activity [3]: +++ (+++ is >60%) | EC50 [3]: < 1 µM
